Experimental findings from patent publication US20230364019A1, “Multi-targeting cell-derived nanoparticles as a versatile theranostic” (Fondazione Istituto Italiano di Tecnologia, priority 2020, published 2023) are described below.

For the experiment, the system named is U-251 MG cell line. The experiment can be described thus: % cell proliferation of U-251 MG cell line after 72 h with non-encapsulated and encapsulated 3PO. The note with it: U-251 cells, inhibitor concentration 5 μM. Format: cell-based. The procedure: FIG. 5. % Cell proliferation of the U-251 MG cell line, after 72 h, using various concentrations of the non-encapsulated and encapsulated (UHT-CMNPs) model drug 3PO.
The ability of the F-CMNPs to act as drug delivery systems was also studied. […] As a proof of concept, we loaded the glucose inhibitor (2E)-3-(3-Pyridinyl)-1-(4-pyridinyl)-2-propen-1-one (3PO) in the F-CMNPs.

Consider `O=C(/C=C/c1cccnc1)c1ccncc1` [3PO, (2E)-3-(3-Pyridinyl)-1-(4-pyridinyl)-2-propen-1-one], for which the “reduction of cells' proliferation” value is reported as “not affecting”.
